Reference: patent EP3042903B1, “Substituted hetero-bicyclic compounds, compositions and medicinal applications thereof” (Impetis Biosciences Ltd., priority 2015, dated 2016)

Key:
[1] = system: B cell activation as measured by CD69 expression in mouse splenocytes; test: Inhibition of B cell activation as measured by CD69 expression in mouse splenocytes (flow cytometry); type: cell-based; details: C57/BL6 splenocytes, 3 µg/mL goat anti-mouse IgM, 18-20 hours, CD69 +ve cells within CD19; read-out: IC50 (nM) in B cell activation assay in Mouse spleenocytes
Text: Inhibition of B cell activation as measured by CD69 expression in mouse splenocytes:
To test the effect of BTK inhibitors in suppressing B-cell receptor (BCR) mediated activation of B cells, we developed a flow cytometry based assay to analyze CD69 expression in B cell population among total splenocyte from the mouse. C57/BL6 mouse spleens were dissected out and splenocytes were isolated by mincing the tissue with a syringe plunger followed by RBC lysis (0.85% ammonium chloride, (Qualigens,Cat #21405) and several washes in PBS. Finally, cell were cultured in culture medium [RPMI medium (Sigma, Cat R6504) with 10% FBS (Gibco - Cat #10270).
Test compounds were diluted half log starting from 2 mM in 100% DMSO (Sigma, cat#D2650) (200X). 1x10^5 splenocytes were incubated with 1 µL of diluted test compounds in 200 µL culture medium in a U-bottom 96 well plate (Greiner) at 37°C with 5% CO2 for 30 minutes. Control wells received 1 µL of 100% DMSO without any compound. The cells were stimulated with 3 µg/mL goat anti-mouse IgM (Sigma, cat#M8644) and incubated for 18-20 hours. After the stimulation, cells were washed in cold PBS with 1% FBS and stained with 1:100 dilution of anti-CD69-PE (eBioscience, cat#12-0691-83) and anti-CD19-PE.Cy5 (eBioscience, cat#15-0193-83) for 1 hour on ice. Then the cells were washed 3 times with PBS with 1% FBS and analyzed by Guava Easycyte Mini flow cytometer system (Millipore). Flow cytometry data were analyzed using Weasel software (WEHI, Melbourne). B cells were gated using CD19 marker. Expression of CD69 was analyzed as percentage of CD69 +ve cells within CD19. Percent activity for each data point was calculated using following formula: [formula]
(§1) Percentage activity was fit using sigmoid dose response with variable slope logistic equation in GraphPad Prism 5 software to determine IC50.

[2] = system: B cell activation as measured by CD69 expression in Human whole blood; test: Inhibition of B cell activation as measured by CD69 expression in Human whole blood (flow cytometry); type: cell-based; details: heparinized human whole blood, anti-IgD antibody 30 µg/mL, 4 hours, CD69 positive cells among CD20 B cells
Experimental: Inhibition of B cell activation as measured by CD69 expression in Human whole blood
To test the effect of BTK inhibitors in suppressing B-cell receptor (BCR) mediated activation of B cells, we developed a flow cytometry based assay to analyze CD69 expression in B cell population in human whole blood. Freshly collected heparinized human whole blood (60 µL/well) was dispensed in 96-well U bottom plate (Greiner), treated with the test compound at a concentrations ranging from 10 µM to 0.3 nM (half log dilutions). 0.5% DMSO (Sigma, cat#D2650) was used as vehicle control. The whole blood was incubated with compounds for 1 hour, followed by stimulation with anti-IgD antibody (Goat Anti-Human IgD Antibody - affinity purified, Bethyl laboratories, cat#A80-106A) at a final concentration of 30 µg/mL at 37°C and 5% CO2 for 4 hours. Subsequently, 45 µL blood was transferred to 1.5 ml microcentrifuge tubes and 1.2 µL of anti-CD20-PE.Cy5 (BD Biosciences, cat#561761)and 1.6 µL of anti-CD69-PE (eBioscience, cat#12-0691-83) antibody were added and mixed properly by gently tapping the tubes. Blood was stained for 20 minutes at room temperature (RT). After antibody incubation, 1 mL pre-warmed 1X Lyse/Fix solution (BD Biosciences, cat#558049) was added and cells were incubated at RT for 10 minutes. Then the tubes were centrifuged at 450xg for 5 minutes at RT and supernatant was removed. Pellet was disrupted by gentle tapping, cells were washed with 1 mL freshly prepared wash buffer and centrifuged at 450xg for 5 minutes at RT. Supernatant was removed completely before resuspending cells in 200 µl of wash buffer and proceeded for acquisition in Guava Easy Cyte Mini instrument. Acquisition was done with following laser settings: FSC Gain: X 16, FSC fine gain 100%, SSC: 893V, GRN: 663V, YLW: 649V, RED: 802V, Threshold Parameters Offset: FSC 0.73 V Threshold 300 units. The cells were diluted in such a way so that cell conc. should not exceed 500 cells/µL and at least 5000 cells were acquired. Viable lymphocytes were gated from the forward and side scatter profile of cells and B cells were sub-gated based on CD20-PE.Cy5 staining. Percent of CD69-PE positive cells were calculated among B lymphocyte sub-gate using Weasel software. Percent activity for each data point was calculated using following formula: [formula]
as §1

[3] = biological target: T1, Recombinant Human Bruton's tyrosine kinase (Btk) (Homo sapiens, UniProt Q06187); test: Recombinant Human Bruton's tyrosine kinase (Btk) inhibition assay (HTRF KinEASE-TK); type: biochemical; details: 20 ng/ml rhBtk, 77 µM ATP (KM), 1 µM TK-Biotin Substrate, 90 minutes; read-out: IC50 (nM) in recombinant hBTK assay
T1 construct: Full length human BTK (hBTK, Genbank#NM_000061.2) was cloned into pFastBac-HTB vector; 6XHis (N); made in house; host or cells: Sf9 cells (Bac-to-Bac baculovirus expression system)
Experimental: Recombinant Human Bruton's tyrosine kinase (Btk) inhibition assay.
Full length human BTK (hBTK, Genbank#NM_000061.2) was cloned into pFastBac-HTB vector (Invitrogen, cat#10359-016). hBTK gene was expressed with N'-terminal 6XHis tag in Sf9 cells using Bac-to-Bac ^(R) Baculovirus expression system (Invitrogen, cat#10359-016) and the recombinant protein was purified by Ni-NTA method. The elution buffer for hBTK consisted of 50 mM Hepes pH 8.0, 300 mM NaCl, 10% glycerol, 1 mM dithiothreitol and 200 mM imidazole.
The inhibition assays were performed using the generic tyrosine kinase assay kit from Cis Bio (HTRF® KinEASE - TK™ # 62TK0PEB). The assay is based on the principle of fluorescence resonance energy transfer (FRET) between the Europium Cryptate labeled anti-phosphotyrosine antibody and streptavidin labeled fluorophore, XL-665. In an uninhibited kinase reaction the biotinylated peptide substrate (Tk-Biotin) gets phosphorylated at an intermediate tyrosine site which is captured by anti-phosphotyrosine antibody which eventually acts as a FRET donor. The streptavidin labeled XL-665 binds strongly to the Tk-Biotin substrate and act as a FRET acceptor. The resultant FRET signal is measured at 665 nm. A ratio of this specific fluorescence (665nm) to the background fluorescence (620nm), conferred by the free antibody, is directly proportional to the kinase activity.
The Btk inhibition assays were performed using 20 ng/ml of rhBtk in a final volume of 10µl reaction buffer containing 77 µM ATP and 1 µM TK-Biotin Substrate in 50 mM HEPES pH 7.0, 5mM MgCl2, 1mM DTT, 0.01% Tween 20 and 50nM SEB®; with a range of concentrations of the inhibitors. The kinase reaction was carried out at the KM of ATP (77 µM) as well as that of Tk-Biotin substrate (1 µM). After 90 minutes, the reaction was stopped by addition of SA-XL665 at a concentration of 62.5 nM in HTRF® detection buffer containing EDTA. Finally 5 µL of TK antibody-cryptate was added to the reaction and the plate was incubated for additional 60 minutes. The fluorescence was read using the FlexStation (Molecular Devices) with excitation at 340 nm and emissions at 620nm (for Cryptate) and 665nm (for FRET). A ratio of the 2 emissions was calculated for each well and expressed as follows: Specific signal = Ratio(Sample)−Ratio(Negative) [formula] Ratio = (665nm/620nm) × 10^4 [formula] Mean Ratio = ∑Ratio/3(triplicates) [formula]
For each data point, % inhibition is calculated based on uninhibited reaction which is considered as 100% activity over no enzyme or substrate controls. Dose response data is then fit using a four parameter logistic equation using GraphPad Prism 5 software to determine inhibition constant 50(IC50).

T1 sequence (Q06187 whole entry): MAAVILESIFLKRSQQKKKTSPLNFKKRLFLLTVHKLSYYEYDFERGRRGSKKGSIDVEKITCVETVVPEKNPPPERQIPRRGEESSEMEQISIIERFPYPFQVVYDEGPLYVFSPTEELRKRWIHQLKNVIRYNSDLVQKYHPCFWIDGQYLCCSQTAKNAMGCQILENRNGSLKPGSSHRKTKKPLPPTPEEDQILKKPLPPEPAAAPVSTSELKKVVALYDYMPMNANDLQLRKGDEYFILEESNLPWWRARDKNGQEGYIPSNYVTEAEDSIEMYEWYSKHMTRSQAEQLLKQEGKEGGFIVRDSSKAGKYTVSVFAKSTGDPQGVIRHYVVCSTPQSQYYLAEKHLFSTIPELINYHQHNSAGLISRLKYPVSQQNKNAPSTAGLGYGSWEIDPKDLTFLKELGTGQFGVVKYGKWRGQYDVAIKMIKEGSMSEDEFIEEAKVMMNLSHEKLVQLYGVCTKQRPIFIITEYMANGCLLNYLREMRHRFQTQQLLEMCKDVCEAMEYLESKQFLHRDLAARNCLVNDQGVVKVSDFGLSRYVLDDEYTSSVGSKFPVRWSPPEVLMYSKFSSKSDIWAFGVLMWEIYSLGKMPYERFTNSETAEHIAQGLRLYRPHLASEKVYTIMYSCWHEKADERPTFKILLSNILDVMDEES

| IC50 [1] [nM] | IC50 [2] [nM] | IC50 [3] [nM] | Compound |
| --- | --- | --- | --- |
| 2.7 | 16.5 |  | O=C1c2c(F)cc(C3CC3)cc2OCCN1c1cc(F)cc(-c2ccnc3[nH]c(-c4ccc(CN5CCN(C6COC6)CC5)cn4)cc23)c1CO [Example 1, 8-cyclopropyl-6-fluoro-4-[5-fluoro-2-(hydroxymethyl)-3-[2-[5-[[4-(oxetan-3-yl)piperazin-1-yl]methyl]-2-pyridyl]-1H-pyrrolo[2,3-b]pyridin-4-yl]phenyl]-2,3-dihydro-1,4-benzoxazepin-5-one] |
| 2.7 | 55.9 | 1.9 | O=C1c2c(F)cc(C3CC3)cc2OCCN1c1cc(F)cc(-c2ccnc3[nH]c(-c4ccc(CN5CCN(CC(F)(F)F)CC5)cn4)cc23)c1CO [Example 2] |
| 2.4 | 54.2 | 0.65 | O=C1c2c(F)cc(C3CC3)cc2OCCN1c1cc(F)cc(-c2ccnc3[nH]c(-c4ccc(CN5CCN(CC(F)F)CC5)cn4)cc23)c1CO [Example 3, 8-cyclopropyl-4-[3-[2-[5-[[4-(2,2-difluoroethyl)piperazin-1-yl]methyl]-2-pyridyl]-1H-pyrrolo[2,3-b]pyridin-4-yl]-5-fluoro-2-(hydroxymethyl)phenyl]-6-fluoro-2,3-dihydro-1,4-benzoxazepin-5-one] |
|  |  | 0.55 | O=C1c2c(F)cc(C3CC3)cc2OCCN1c1cc(F)cc(-c2ccnc3[nH]c(-c4ccc(CN5CCOCC5)cn4)cc23)c1CO [Example 4, 8-cyclopropyl-6-fluoro-4-[5-fluoro-2-(hydroxymethyl)-3-[2-[5-(morpholinomethyl)-2-pyridyl]-1H-pyrrolo[2,3-b]pyridin-4-yl]phenyl]-2,3-dihydro-1,4-benzoxazepin-5-one] |
|  |  | 3 | C[C@H]1CN(Cc2ccc(-c3cc4c(-c5cc(F)cc(N6CCOc7cc(C8CC8)cc(F)c7C6=O)c5CO)ccnc4[nH]3)nc2)CCN1CC(F)F [Example 5, 8-cyclopropyl-4-[3-[2-[5-[[(3S)-4-(2,2-difluoroethyl)-3-methyl-piperazin-1-yl]methyl]-2-pyridyl]-1H-pyrrolo[2,3-b]pyridin-4-yl]-5-fluoro-2-(hydroxymethyl)phenyl]-6-fluoro-2,3-dihydro-1,4-benzoxazepin-5-one] |
|  |  | 2.7 | C[C@H]1CN(CC(F)F)CCN1Cc1ccc(-c2cc3c(-c4cc(F)cc(N5CCOc6cc(C7CC7)cc(F)c6C5=O)c4CO)ccnc3[nH]2)nc1 [Example 6, 8-cyclopropyl-4-[3-[2-[5-[[(2S)-4-(2,2-difluoroethyl)-2-methyl-piperazin-1-yl]methyl]-2-pyridyl]-1H-pyrrolo[2,3-b]pyridin-4-yl]-5-fluoro-2-(hydroxymethyl)phenyl]-6-fluoro-2,3-dihydro-1,4-benzoxazepin-5-one] |
|  |  | 1.8 | C[C@@H]1CN(Cc2ccc(-c3cc4c(-c5cc(F)cc(N6CCOc7cc(C8CC8)cc(F)c7C6=O)c5CO)ccnc4[nH]3)nc2)CCN1CC(F)F [Example 7, 8-cyclopropyl-4-[3-[2-[5-[[(3R)-4-(2,2-difluoroethyl)-3-methyl-piperazin-1-yl]methyl]-2-pyridyl]-1H-pyrrolo[2,3-b]pyridin-4-yl]-5-fluoro-2-(hydroxymethyl)phenyl]-6-fluoro-2,3-dihydro-1,4-benzoxazepin-5-one] |
| 47 |  | 2.5 | O=C1c2ccc(C3CC3)cc2OCCN1c1cc(F)cc(-c2ccnc3[nH]c(C4=CCN(C5COC5)CC4)cc23)c1CO [Example 9, 8-cyclopropyl-4-[5-fluoro-2-(hydroxymethyl)-3-[2-[1-(oxetan-3-yl)-3,6-dihydro-2H-pyridin-4-yl]-1H-pyrrolo[2,3-b]pyridin-4-yl]phenyl]-2,3-dihydro-1,4-benzoxazepin-5-one] |
| 27 |  | 4 | CC(C)(O)CN1CC=C(c2cc3c(-c4cc(F)cc(N5CCOc6cc(C7CC7)ccc6C5=O)c4CO)ccnc3[nH]2)CC1 [Example 10, 8-cyclopropyl-4-[5-fluoro-2-(hydroxymethyl)-3-[2-[1-(2-hydroxy-2-methyl-propyl)-3,6-dihydro-2H-pyridin-4-yl]-1H-pyrrolo[2,3-b]pyridin-4-yl]phenyl]-2,3-dihydro-1,4-benzoxazepin-5-one] |
|  |  | 1.15 | O=C1c2c(F)cc(C3CC3)cc2OCCN1c1cc(F)cc(-c2ccnc3[nH]c(-c4ccc(OC5CCN(C6COC6)CC5)cn4)cc23)c1CO [Example 11, 8-cyclopropyl-6-fluoro-4-[5-fluoro-2-(hydroxymethyl)-3-[2-[5-[[1-(oxetan-3-yl)-4-piperidyl]oxy]-2-pyridyl]-1H-pyrrolo[2,3-b]pyridin-4-yl]phenyl]-2,3-dihydro-1,4-benzoxazepin-5-one] |
